Measurements as given in PubChem BioAssay (NCI).
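These data come from cells grown in 96-well plates and exposed to compound for 48 hours at five concentrations. GI50 is the concentration that inhibits growth by half. TGI marks complete inhibition of growth.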

How the values were obtained:
Test in all cases: DTP human tumour cell line panel, 48 h
OVCAR-8 ovarian = tested on: OVCAR-8 ovarian
SK-OV-3 ovarian = tested on: SK-OV-3 ovarian
HS 578T breast = tested on: HS 578T breast
UACC-62 melanoma = tested on: UACC-62 melanoma
SK-MEL-2 melanoma = tested on: SK-MEL-2 melanoma
MOLT-4 leukemia = tested on: MOLT-4 leukemia
OVCAR-4 ovarian = tested on: OVCAR-4 ovarian
MDA-MB-231 breast = tested on: MDA-MB-231 breast
HCT-116 colon = tested on: HCT-116 colon
UACC-257 melanoma = tested on: UACC-257 melanoma
MDA-MB-435 = tested on: MDA-MB-435
HT29 colon = tested on: HT29 colon
786-0 renal = tested on: 786-0 renal
SF-295 CNS = tested on: SF-295 CNS
SF-268 CNS = tested on: SF-268 CNS
LOX IMVI melanoma = tested on: LOX IMVI melanoma
OVCAR-5 ovarian = tested on: OVCAR-5 ovarian
NCI-H460 lung = tested on: NCI-H460 lung
SN12C renal = tested on: SN12C renal
U251 CNS = tested on: U251 CNS
TK-10 renal = tested on: TK-10 renal
COLO 205 colon = tested on: COLO 205 colon
IGROV1 ovarian = tested on: IGROV1 ovarian
NCI/ADR-RES ovarian = tested on: NCI/ADR-RES ovarian
SF-539 CNS = tested on: SF-539 CNS
SR leukemia = tested on: SR leukemia
OVCAR-3 ovarian = tested on: OVCAR-3 ovarian
SK-MEL-28 melanoma = tested on: SK-MEL-28 melanoma
HL-60(TB) leukemia = tested on: HL-60(TB) leukemia
EKVX NSCLC = tested on: EKVX NSCLC
ACHN renal = tested on: ACHN renal
SW-620 colon = tested on: SW-620 colon
PC-3 prostate = tested on: PC-3 prostate
BT-549 breast = tested on: BT-549 breast
SNB-75 CNS = tested on: SNB-75 CNS
DU-145 prostate = tested on: DU-145 prostate
CCRF-CEM leukemia = tested on: CCRF-CEM leukemia
A549 NSCLC = tested on: A549 NSCLC
HOP-62 NSCLC = tested on: HOP-62 NSCLC
RXF 393 renal = tested on: RXF 393 renal
K-562 leukemia = tested on: K-562 leukemia
NCI-H226 lung = tested on: NCI-H226 lung
NCI-H522 lung = tested on: NCI-H522 lung
HCT-15 colon = tested on: HCT-15 colon
NCI-H23 lung = tested on: NCI-H23 lung
CAKI-1 renal = tested on: CAKI-1 renal
HOP-92 NSCLC = tested on: HOP-92 NSCLC
RPMI-8226 leukemia = tested on: RPMI-8226 leukemia
HCC-2998 colon = tested on: HCC-2998 colon
A498 renal = tested on: A498 renal
T-47D breast = tested on: T-47D breast
M14 melanoma = tested on: M14 melanoma
UO-31 renal = tested on: UO-31 renal
SK-MEL-5 melanoma = tested on: SK-MEL-5 melanoma
KM12 colon = tested on: KM12 colon
MALME-3M melanoma = tested on: MALME-3M melanoma
MCF7 breast = tested on: MCF7 breast
SNB-19 CNS = tested on: SNB-19 CNS

## N#CSCC1CC(O)(c2ccccc2)C(c2ccccc2)C(c2ccc(F)cc2)O1 (stereo unspecified)
OVCAR-8 ovarian
  GI50: 3.18 µM
  TGI: 11 µM
SK-OV-3 ovarian
  GI50: 28.6 µM
  TGI: > 90.6 µM
HS 578T breast
  GI50: 3.18 µM
  TGI: 12.9 µM
UACC-62 melanoma
  GI50: 1.9 µM
  TGI: 5.58 µM
SK-MEL-2 melanoma
  GI50: 2.69 µM
  TGI: 7.78 µM
MOLT-4 leukemia
  GI50: 0.676 µM
  TGI: 4.51 µM
OVCAR-4 ovarian
  GI50: 2.84 µM
  TGI: 10.9 µM
MDA-MB-231 breast
  GI50: 2.53 µM
  TGI: 8.62 µM
HCT-116 colon
  GI50: 1.28 µM
  TGI: 2.9 µM
UACC-257 melanoma
  GI50: 3.66 µM
  TGI: 13.5 µM
MDA-MB-435
  GI50: 1.99 µM
  TGI: 4.9 µM
HT29 colon
  GI50: 2.61 µM
  TGI: 11.6 µM
786-0 renal
  GI50: 3.05 µM
  TGI: 9.08 µM
SF-295 CNS
  GI50: 1.88 µM
  TGI: 7.08 µM
SF-268 CNS
  GI50: 2.57 µM
  TGI: 7.25 µM
LOX IMVI melanoma
  GI50: 1.64 µM
  TGI: 3.18 µM
OVCAR-5 ovarian
  GI50: 7.24 µM
  TGI: 19.4 µM
NCI-H460 lung
  GI50: 4.53 µM
  TGI: 18.1 µM
SN12C renal
  GI50: 2.05 µM
  TGI: 5.27 µM
U251 CNS
  GI50: 3.66 µM
  TGI: 15.1 µM
TK-10 renal
  GI50: 2.38 µM
  TGI: 6.3 µM
COLO 205 colon
  GI50: 3.13 µM
  TGI: 9.97 µM
IGROV1 ovarian
  GI50: 1.69 µM
  TGI: 7.6 µM
NCI/ADR-RES ovarian
  GI50: 3.13 µM
  TGI: 11.9 µM
SF-539 CNS
  GI50: 3.15 µM
  TGI: 7.69 µM
SR leukemia
  GI50: 0.344 µM
  TGI: 3.02 µM
OVCAR-3 ovarian
  GI50: 1.52 µM
  TGI: 2.99 µM
SK-MEL-28 melanoma
  GI50: 2.93 µM
  TGI: 8.79 µM
HL-60(TB) leukemia
  GI50: 0.672 µM
  TGI: 2.96 µM
EKVX NSCLC
  GI50: 2.46 µM
  TGI: 7.58 µM
ACHN renal
  GI50: 3.42 µM
  TGI: 11.4 µM
SW-620 colon
  GI50: 3.02 µM
  TGI: 10 µM
PC-3 prostate
  GI50: 2.14 µM
  TGI: 11.3 µM
BT-549 breast
  GI50: 2.32 µM
  TGI: 5.39 µM
SNB-75 CNS
  GI50: 7.63 µM
  TGI: 45.2 µM
DU-145 prostate
  GI50: 2.16 µM
  TGI: 5 µM
CCRF-CEM leukemia
  GI50: 3.09 µM
  TGI: > 100 µM
A549 NSCLC
  GI50: 8.38 µM
  TGI: 40.5 µM
HOP-62 NSCLC
  GI50: 8.81 µM
  TGI: 24.3 µM
RXF 393 renal
  GI50: 2.22 µM
  TGI: 4.4 µM
K-562 leukemia
  GI50: 1.5 µM
  TGI: 5.97 µM
NCI-H226 lung
  GI50: 4.89 µM
  TGI: 16.1 µM
NCI-H522 lung
  GI50: 2.4 µM
  TGI: 7.24 µM
HCT-15 colon
  GI50: 3.05 µM
  TGI: 10.2 µM
NCI-H23 lung
  GI50: 3.21 µM
  TGI: 11.1 µM
CAKI-1 renal
  GI50: 2.39 µM
  TGI: 5.46 µM
HOP-92 NSCLC
  GI50: 2.13 µM
  TGI: 7.88 µM
RPMI-8226 leukemia
  GI50: 1.67 µM
  TGI: 7.03 µM
HCC-2998 colon
  GI50: 10.7 µM
  TGI: 23 µM
A498 renal
  GI50: 18.1 µM
  TGI: 45.9 µM
T-47D breast
  GI50: 3.17 µM
  TGI: > 37.3 µM
M14 melanoma
  GI50: 1.84 µM
  TGI: 4.09 µM
UO-31 renal
  GI50: 2.62 µM
  TGI: 11.9 µM
SK-MEL-5 melanoma
  GI50: 4.84 µM
  TGI: 17.2 µM
KM12 colon
  GI50: 2.32 µM
  TGI: 5.85 µM
MALME-3M melanoma
  GI50: 2.08 µM
  TGI: 5.02 µM
MCF7 breast
  GI50: 2.8 µM
  TGI: 11.6 µM
SNB-19 CNS
  GI50: 19 µM
  TGI: > 70.3 µM
